{"source": "patent US20190218226A1", "about": "“PRODRUGS OF ANTICANCER AGENTS INDOTECAN AND INDIMITECAN” (Purdue Research Foundation, priority 2016, published 2019)", "key": {"[1]": {"tested_on": "all human cancer cell lines successfully tested (NCI60)", "assay": "NCI60 mean graph midpoint for growth inhibition", "assay_type": "cell-based", "conditions": "all human cancer cell lines successfully tested; ± standard error; read-out: MGM (mean graph midpoint for growth inhibition)", "method_in_brief": "(§1)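 Human tumour cells incubated 48 h with test compound over a 0.01–100 μM range, then sulforhodamine B dye added and absorbance read. GI50 derived by interpolating percentage growth relative to control.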"}, "SN12C": {"tested_on": "SN12C", "assay": "NCI60 antiproliferative screen, renal SN12C", "assay_type": "cell-based, human", "conditions": "48 h, sulforhodamine B, read-out: Cytotoxicity (GI50) renal SN12C", "method_in_brief": "as §1"}, "HCT-116": {"tested_on": "HCT-116", "assay": "NCI60 antiproliferative screen, colon HCT-116", "assay_type": "cell-based, human", "conditions": "HCT-116, 48 h, sulforhodamine B; read-out: Cytotoxicity (GI50) Colon HCT-116", "method_in_brief": "as §1"}, "Human recombinant Top1": {"target": "T1, Human recombinant Top1 (Homo sapiens, UniProt P11387)", "T1 construct": "made in house", "T1 sequence (P11387 1-765)": "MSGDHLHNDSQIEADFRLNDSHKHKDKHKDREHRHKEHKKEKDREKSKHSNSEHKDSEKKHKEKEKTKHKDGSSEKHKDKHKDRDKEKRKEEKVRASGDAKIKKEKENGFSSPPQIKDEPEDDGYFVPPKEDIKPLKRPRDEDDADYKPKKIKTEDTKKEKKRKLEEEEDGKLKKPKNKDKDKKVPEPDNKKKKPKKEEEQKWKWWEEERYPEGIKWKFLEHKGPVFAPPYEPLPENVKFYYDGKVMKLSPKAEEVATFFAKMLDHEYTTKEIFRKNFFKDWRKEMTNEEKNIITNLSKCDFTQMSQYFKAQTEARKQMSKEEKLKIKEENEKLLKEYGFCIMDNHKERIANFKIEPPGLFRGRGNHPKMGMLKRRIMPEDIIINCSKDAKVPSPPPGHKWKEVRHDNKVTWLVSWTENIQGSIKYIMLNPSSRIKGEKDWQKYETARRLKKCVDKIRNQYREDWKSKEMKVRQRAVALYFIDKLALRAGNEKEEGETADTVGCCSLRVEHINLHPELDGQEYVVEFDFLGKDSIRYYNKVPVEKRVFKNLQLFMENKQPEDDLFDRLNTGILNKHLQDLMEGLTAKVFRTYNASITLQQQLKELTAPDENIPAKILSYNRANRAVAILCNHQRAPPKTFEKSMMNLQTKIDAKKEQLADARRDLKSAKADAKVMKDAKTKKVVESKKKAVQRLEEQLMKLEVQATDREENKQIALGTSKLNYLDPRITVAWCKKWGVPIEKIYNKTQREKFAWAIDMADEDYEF", "assay": "Top1-mediated DNA cleavage assay", "assay_type": "biochemical", "parameters": "key to Top 1 Cleavage: 0, no inhibitory activity; +, between 20 and 50% activities; ++, between 50 and 75% activity; +++, between 75 and 95% activity; ++++, equipotent", "conditions": "graded relative to 1 μM camptothecin", "method_in_brief": "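About 2 nM 3′-[32P]-labelled 117-bp DNA incubated with baculovirus-expressed recombinant Top1 at 25 °C for 20 min (Tris pH 7.5, KCl, MgCl2, EDTA, BSA) at four compound concentrations; stopped with 0.5% SDS. Denaturing 20% PAGE, phosphorimaging; cleavage scored semiquantitatively (0 to ++++) against reference compounds.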"}}, "data": [{"smiles": "COC(=O)CCC(=O)Oc1cc2c(=O)n(CCCN3CCOCC3)c3c(c2cc1OC)C(=O)c1cc2c(cc1-3)OCO2", "note": "[Compound 17, 2-Methoxy-6-(3-morpholinopropyl)-5,12-dioxo-6,12-dihydro-5H-[1,3]dioxolo[4′,5′:5,6]indeno[1,2-c]isoquinolin-3-yl Methyl Succinate]", "values": [{"measurement": "mean GI50 across NCI60 cell lines (MGM)", "setting": "[1]", "result": "36 ± 18", "unit": "nM"}, {"measurement": "GI50", "setting": "SN12C", "result": "< 10", "unit": "nM"}, {"measurement": "GI50", "setting": "HCT-116", "result": 20, "unit": "nM"}, {"measurement": "Top 1 Cleavage", "setting": "Human recombinant Top1", "result": 0}]}]}
